Results on five compounds are retold here after patent US6653478B2, “Substituted benzimidazol-2-ones as vasopressin receptor antagonists and neuropeptide Y modulators” (Ortho-McNeil Pharmaceutical, Inc., priority 2000, dated 2003).

pIC50: −log10 of the molar value. Structures can show the parent of a compound that is named as a salt.

One assay concerns the target T1, NPY2 receptors (Homo sapiens, UniProt P49146).
T1 construct: Cell Membranes from KAN-TS cells having NPY2 receptors; endogenous in cells; host or cells: KAN-TS cells (membranes)
T1 sequence (P49146 1-381): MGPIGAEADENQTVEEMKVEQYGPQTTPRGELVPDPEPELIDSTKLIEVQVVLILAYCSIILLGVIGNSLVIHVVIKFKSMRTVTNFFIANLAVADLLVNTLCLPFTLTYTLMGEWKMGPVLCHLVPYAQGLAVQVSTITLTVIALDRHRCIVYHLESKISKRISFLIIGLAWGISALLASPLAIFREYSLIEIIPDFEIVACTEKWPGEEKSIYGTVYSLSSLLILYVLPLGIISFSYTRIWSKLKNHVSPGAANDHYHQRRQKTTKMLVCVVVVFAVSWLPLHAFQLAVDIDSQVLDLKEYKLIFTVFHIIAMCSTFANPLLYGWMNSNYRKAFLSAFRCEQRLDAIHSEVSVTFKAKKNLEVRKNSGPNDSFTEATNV
Nature of the assay: Neuropeptide Y receptor binding assay (125I-PYY, KAN-TS cell membranes). The conditions noted are these: 10 μM compound; for inhibition at 10 µM: read-out: NPY-2@10, % Inh. An outline of the steps:
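Membranes from KAN-TS cells competed with 125I-PYY in binding buffer containing BSA, test compound at 10 μM final, 1 hr at room temperature. Nonspecific binding defined with 1 μM PYY final. Tubes centrifuged, washed with PBS and bound radioactivity gamma-counted.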

Another assay has as its target human V2 receptor (Homo sapiens, UniProt P30518). Put plainly: V2 functional assay, cAMP accumulation in transfected HEK-293 cells. Details: expressed in transfected cells; host or cells: HEK-293. The class given is cell-based. The conditions noted are these: for pIC50: AVP 1 nM, read-out: Cell-Based Functional activity V2 IC50. Here is the method: V1a, V1b or V2 Functional Assay
HEK-293 cells were grown in DMEM media supplemented with 10% FBS and glutamine (Gibco BRL, Grand Island, N.Y.). Once transfected the cells were passed biweekly by trypsinization and seeded into 96 well plates at 33,000 cells per well. HEK-293 were transfected with human V1a, V1b or V2 DNA using DMRIE-C reagent from Life Technologies, Inc., Grand Island, N.Y. Cells were tested for their responsiveness to vasopressin 48 hours after transfection. Stable lines were generated by selecting cells grown in culture media containing geneticin (500 μg/ml, Life Technologies).
The accumulation of cAMP was measured in transfected HEK-293 expressing the human V2 receptor. The cells were cultured 4-7 days in 96-well plates. On the day of assay, cells were washed twice in assay media (DMEM/F12 containing 0.1% BSA). The cells were treated with the test compound for 5 minutes and then given AVP (1 nM) in assay media containing 1 mM isobutylmethylxanthine. After 5 minutes, 0.5 N HCl was added to disrupt the cells and solubilize cAMP. The cAMP content of 20 μl of the cell lysate in each well was measured using cAMP Flashplates (NEN Life Sciences). Data are expressed as pmol cAMP/well. While the assay is optimized to detect and quantitate antagonistic activity, agonistic activity would also be apparent at the higher concentrations of test compounds.
The data from the cAMP accumulation and the calcium mobilization assays are expressed as IC50 values as determined from dose response curves.
In general terms: Cyclic AMP is a second messenger, typically raised through Gs and lowered through Gi signalling.

The target of another assay is human V1a receptor (Homo sapiens, UniProt P37288). Put plainly: V1a binding assay (3H-AVP displacement, HEK-293 membranes). Details: expressed in transfected cells; host or cells: HEK-293 (membranes). An outline of the steps: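 Membranes competed against 3H-AVP (40-87 Ci/mmol, 10,000 cpm/well) in 50 mM Tris, 5 mM MgCl2, 0.1% BSA, pH 7.5, with protease inhibitors. Incubated 1 hour at room temperature, then filtered on PEI-presoaked GF/C and scintillation counted. Non-specific binding defined with 1.25 μM AVP.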
Chain of human V1a receptor (P37288 whole entry): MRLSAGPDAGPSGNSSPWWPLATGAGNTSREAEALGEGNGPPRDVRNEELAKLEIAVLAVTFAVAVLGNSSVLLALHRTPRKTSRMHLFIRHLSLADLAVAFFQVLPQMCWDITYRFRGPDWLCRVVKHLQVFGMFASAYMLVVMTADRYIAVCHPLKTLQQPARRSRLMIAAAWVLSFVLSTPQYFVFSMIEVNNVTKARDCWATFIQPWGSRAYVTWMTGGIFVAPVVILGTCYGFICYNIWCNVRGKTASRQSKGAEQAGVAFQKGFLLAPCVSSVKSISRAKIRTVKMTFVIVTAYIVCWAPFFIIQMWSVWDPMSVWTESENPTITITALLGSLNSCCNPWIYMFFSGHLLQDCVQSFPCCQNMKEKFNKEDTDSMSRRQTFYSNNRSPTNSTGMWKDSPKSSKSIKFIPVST

The pIC50 is −log10 of the IC50, conventionally taken in molar units. Consider “1-[(N1-Piperidinocarbothioyl-(1-L-carboxymethyl-2-phenylamino)-4-yl]-3-(3-aminopropyl)-1,3-dihydrobenzimidazol-2-one Hydrochloride [Compound 57]”, for which, at NPY2 receptors, the “NPY-2@10, % Inh” value stood at 20%. Besides, the “Cell-Based Functional activity V2 % Inh. @ 30” value on human V2 receptor (30 μM compound) was determined as 0% @ 30. For the same compound, the negative-log IC50 (pIC50) at human V1a receptor was 6.59.

With `CCN(CC)CCn1c(=O)n(C2CCN(C(=S)NC(c3ccccc3)c3ccccc3)CC2)c2ccccc21` [Compound 35, 1-(N1-Piperidinocarbothioyldiphenylmethylamino-4-yl)-3-(2-diethyaminoethyl)-1,3-dihydrobenzimidazol-2-one], on NPY2 receptors, the inhibition at 10 µM was found to be 74%. Also, the figures for the pIC50 at human V2 receptor and at human V1a receptor were 6.21 and 7.12, respectively.

Turning to `CCN(CC)CCn1c(=O)n(C2CCN(C(=S)NC(Cc3ccccc3)C(=O)OC)CC2)c2ccccc21` [Compound 42, 1-(N1-Piperidinocarbothioyl-(2-phenyl-1-L-carboxymethyl)amino-4-yl)-3-(2-diethyaminoethyl)-1,3-dihydrobenzimidazol-2-one], the inhibition at 10 µM on NPY2 receptors came out at 10%; at human V2 receptor (HEK293, 10 μM compound, read-out: Cell-Based Functional activity V2 % Inh. @ 10), 0%. In addition, the pIC50 on human V1a receptor was 7.42.

Regarding `NCCCn1c(=O)n(C2CCN(C(=S)NC(c3ccccc3)c3ccccc3)CC2)c2ccccc21` [Compound 55, 1-[(N1-Piperidinocarbothioyldiphenylmethylamino)-4-yl]-3-(3-aminopropyl)-1,3-dihydrobenzimidazol-2-one Monohydrochloride], the inhibition at 10 µM on NPY2 receptors was 82%. For the same compound, the pIC50 on human V2 receptor was 4.64; on human V1a receptor, 7.57.

With `N=C(N)NCCCn1c(=O)n(C2CCN(C(=S)NC(c3ccccc3)c3ccccc3)CC2)c2ccccc21` [Compound 59, 1-[(N1-Piperidinocarbothioyldiphenylmethylamino)-4-yl]-3-(3-guanidinopropyl)-1,3-dihydrobenzimidazol-2-one], the inhibition at 10 µM on NPY2 receptors was 90%. Besides, on human V2 receptor (HEK293, 30 μM compound, read-out: Cell-Based Functional activity V2 % Inh. @ 30), the inhibition at 30 µM came to 0%. At human V1a receptor, this compound had a pIC50 of 7.49.
